From patent US10457672B2, “γ-diketones as Wnt/β-catenin signaling pathway activators” (Samumed, LLC, priority 2013, dated 2019)

Test system: Wnt/β-catenin signaling pathway (Wnt-responsive SP5 promoter luciferase reporter in SW480 cells)
Assay: Wnt reporter (SP5 promoter-firefly luciferase) activation assay in SW480 cells
Type: cell-based
Settings: Homo sapiens; SW480 colon cancer cells with SP5 promoter luciferase reporter; 24 h after compound addition; normalized to DMSO; concentration at half maximal activation
In short: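 SW480 cells (APC-mutant) stably carrying an SP5-derived 8×TCF/LEF promoter–firefly luciferase reporter were treated with half-log compound dilutions from 3 or 10 µM top.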

Compound | EC50 [nM]
O=C(CCC(=O)c1ccccc1C(F)(F)F)c1ccccn1 [Compound 541, 1-(Pyridin-2-yl)-4-(2-(trifluoromethyl)phenyl)butane-1,4-dione] | 2810
Cc1ccccc1C(=O)CCC(=O)c1ccccn1 [Compound 544, 1-(Pyridin-2-yl)-4-(o-tolyl)butane-1,4-dione] | 900
COc1ccccc1C(=O)CCC(=O)c1ccccn1 [Compound 547, 1-(2-Methoxyphenyl)-4-(pyridin-2-yl)butane-1,4-dione] | > 10000
O=C(CCC(=O)c1ccco1)c1ccccn1 [Compound 554, 1-(Furan-2-yl)-4-(pyridin-2-yl)butane-1,4-dione] | > 10000
O=C(CCC(=O)c1ccccc1F)c1cccs1 [Compound 557, 1-(2-Fluorophenyl)-4-(thiophen-2-yl)butane-1,4-dione] | 26
O=C(CCC(=O)c1ccccc1C(F)(F)F)c1cccs1 [Compound 559, 1-(Thiophen-2-yl)-4-(2-(trifluoromethyl)phenyl)butane-1,4-dione] | 340
Cc1ccccc1C(=O)CCC(=O)c1cccs1 [Compound 560, 1-(Thiophen-2-yl)-4-(o-tolyl)butane-1,4-dione] | 55
COc1ccccc1C(=O)CCC(=O)c1cccs1 [Compound 562, 1-(2-Methoxyphenyl)-4-(thiophen-2-yl)butane-1,4-dione] | 106
O=C(CCC(=O)c1ncccc1F)c1ccc2c(c1)OCCO2 [Compound 569, 1-(2,3-Dihydrobenzo[b][1,4]dioxin-6-yl)-4-(3-fluoropyridin-2-yl) butane-1,4-dione] | 1.96
O=C(CCC(=O)c1ncccc1C(F)(F)F)c1ccc2c(c1)OCCO2 [Compound 570, 1-(2,3-Dihydrobenzo[b][1,4]dioxin-6-yl)-4-(3-(trifluoromethyl)pyridin-2-yl)butane-1,4-dione] | 26
O=C(CCC(=O)c1ncccn1)c1ccccc1 [Compound 718, 1-Phenyl-4-(pyrimidin-2-yl)butane-1,4-dione] | 681
O=C(CCC(=O)c1ncccn1)c1ccc2c(c1)CCCC2 [Compound 737, 1-(Pyrimidin-2-yl)-4-(5,6,7,8-tetrahydronaphthalen-2-yl)butane-1,4-dione] | 22
O=C(CCC(=O)c1ncccc1Cl)c1ccc2c(c1)OCCO2 [Compound 767, 1-(3-Chloropyridin-2-yl)-4-(2,3-dihydrobenzo[b][1,4]dioxin-6-yl) butane-1,4-dione] | 2.16
